Laboratory results from patent publication US11046709B2, “Fused 1,4-diazepines as BET bromodomain inhibitors” (THE REGENTS OF THE UNIVERSITY OF MICHIGAN, priority 2017, dated 2021).

Tests used:
[1] = molecular target: T1, recombinant BRD4 BD2 (Homo sapiens, UniProt O60885); test: Competitive fluorescence-polarization (FP) binding assay, BRD4 BD2
T1 construct: for recombinant BRD4 BD1 and BRD4 BD2 proteins
Method: Fluorescence Polarization (FP) competitive binding studies were carried out using a FAM labeled fluorescent probe, see, e.g., Cpd. No. 350 of US 2014/0256706, to determine binding affinities of representative Compounds of the Disclosure for recombinant BRD4 BD1 and BRD4 BD2 proteins. Equilibrium dissociation constants (Kd) values of the fluorescent probe to BRD4 BD1 and BD2 proteins were determined from protein saturation experiments by monitoring the total fluorescence polarization of mixtures composed with the fluorescent probe at a fixed concentration and proteins with increasing concentrations up to full saturation. Serial dilutions of testing proteins were mixed with the fluorescent probe to a final volume of 200 μl in the assay buffer (100 mM phosphate buffer, pH=6.5, 0.01% Triton X-100 (Sigma, 282103) being added right before assays). Final fluorescent probe concentration was 1.5 nM for both proteins. Plates were incubated at room temperature for 30 minutes with gentle shaking to assure equilibrium. FP values in millipolarization units (mP) were measured using the Infinite M-1000 plate reader (Tecan U.S., Research Triangle Park, N.C.) in Microfluor 1 96-well, black, round-bottom plates (Thermo Scientific, Waltham, Mass.) at an excitation wavelength of 485 nm and an emission wavelength of 530 nm. Kd values of the fluorescent probe, which were calculated by fitting the sigmoidal dose-dependent FP increases as a function of protein concentrations using Graphpad Prism 6.0 software (Graphpad Software, San Diego, Calif.), are 5.5 and 3.0 nM to BDR4 BD1 and 2, respectively.
The IC50 and Ki values of compounds were determined in a competitive binding experiment. See US 2014/0256706. Mixtures of 10 μl of the tested compounds in assay buffer with 40% Ethylene Glycol and 190 μl of preincubated protein/probe complex solution in the assay buffer (100 mM potassium phosphate, pH 6.5, 0.01% Triton X-100) were added into assay plates which were incubated at room temperature for 30 minutes with gentle shaking. Final concentrations of proteins were 10 and 6 nM in assays for BRD4 BD1 and BD2, respectively. Final probe concentration is 1.5 nM in both assays. Negative controls containing protein/probe complex only (equivalent to 0% inhibition), and positive controls containing only free probes (equivalent to 100% inhibition), were included in each assay plate. FP values were measured as described above. IC50 values were determined by nonlinear regression fitting of the competition curves. Instead of being calculated from IC50 values as described before. Ki values of competitive inhibitors were obtained directly by nonlinear regression fitting as well, based upon the Kd values of the probe to different proteins, and concentrations of the proteins and probes in the competitive assays (US 2014/0256706; Wang, FEBS Lett. 360:111 (1995); Zhang et al., Analytical Biochemistry, 331:138 (2004)).
Representative compounds in Table 5 were evaluated for their binding affinities to BRD4 BD1 and BD2 proteins using the Competitive Fluorescence-Polarization (FP) Assays described in Example 6, with the data included in Table 6.

[2] = tested on: MOLM-13; test: Cell growth inhibition, 4-day proliferation assay, MOLM-13; format: cell-based; conditions: Homo sapiens, MOLM-13, WST-8 assay, Table 7; read-out: Cell growth inhibition (IC50 (nM)) MOLM-13
Method: (§1) The effect of representative Compounds of the Disclosure on cell viability was determined in a 4-day proliferation assay. Cells were maintained in the appropriate culture medium with 100/0 FBS at 37° C. and an atmosphere of 5% CO2. All the cell lines were used within three months of thawing fresh vials.
(§2) In general, cells were seeded in 96-well flat bottom (Corning COSTAR, Corning, N.Y., cat #3595) or white opaque cell culture plates (BD Falcon, cat #353296) at a density of 3,000-10,000 cells/well in 75 μl of culture medium. Compounds were serially diluted in the appropriate medium, and 75 μl of the diluted compounds were added to the appropriate wells of the cell plate. After the addition of compounds, the cells were incubated at 37° C. in an atmosphere of 5% CO2 for 4 days. Cell viability was determined using the CellTiter-Glo® Luminescent Cell Viability Assay Kit (Promega, Madison, Wis.) for leukemia cells and WST (2-(2-methoxy-4-nitrophenyl)-3-(4-nitrophenyl)-5-(2,4-disulfophenyl)-2H-tetrazolium, monosodium salt) Cell Counting-8 Kit (Dojindo Molecular Technologies, Inc., Rockville, Md.) for adherent cells according to the manufacturers' instructions.
(§3) For WST assay (adherent cells), WST-8 reagent was added to each well at a final concentration of 10% (v/v), and then the plates were incubated at 37° C. for 1-2 hours for color development. The absorbance was measured at 450 nm using a SPECTRAmax PLUS plate reader (Molecular Devices, Sunnyvale, Calif.). The readings were normalized to the DMSO-treated cells and the half maximal inhibitory concentration (IC50) was calculated by nonlinear regression (four parameters sigmoid fitted with variable slope, least squares fit, and no constraint) analysis using the GraphPad Prism 5 software (GraphPad Software, La Jolla, Calif.).
(§4) For CellTiter-Glo assay (suspension cells), 100 μl of CellTiter-Glo® Reagent was added to each well, and then the plates were incubated at room temperature for 10-20 minutes. The luminescent signal was measured using a Tecan Infinite M1000 multimode microplate reader (Tecan, Morrisville, N.C.). The readings were normalized to the DMSO-treated cells and the IC50 was calculated by nonlinear regression (four parameters sigmoid fitted with variable slope, least squares fit, and no constraint) analysis using the GraphPad Prism 5 software. See US 2014/0256706.
(§5) For a number of representative compounds in Table 5, their IC50 values in cell growth inhibition activity in the RS4;11 and MOLM-13 human leukemia cell lines and the MDA-MB-231 breast cancer cell line were evaluated using the WST-8 assay described in EXAMPLE 7, with the data shown in Table 7.

[3] = tested on: MDA-MB-231; test: Cell growth inhibition, 4-day proliferation assay, MDA-MB-231; format: cell-based; conditions: Homo sapiens, MDA-MB-231; WST-8 assay, Table 7; read-out: Cell growth inhibition (IC50 (nM)) MDA-MB-231
Method: as §1, §2, §3, §4, §5

COc1ccc(C#Cc2sc3c(c2C)C(c2ccc(Cl)cc2)=N[C@@H](C)c2nnc(C)n2-3)nc1 [Cpd. No. 36, (S)-4-(4-chlorophenyl)-2-((5-methoxypyridin-2-yl)ethynyl)-3,6,9-trimethyl-6H-thieno[3,2-f][1,2,4]triazolo[4,3-a][1,4]diazepine]
IC50 [1]: 11.7 nM

Cc1c(C#Cc2cn[nH]c2)sc2c1C(c1ccc(Cl)cc1)=N[C@@H](C)c1nnc(C)n1-2 [Cpd. No. 22, (S)-2-((1H-pyrazol-4-yl)ethynyl)-4-(4-chlorophenyl)-3,6,9-trimethyl-6H-thieno[3,2-f][1,2,4]triazolo[4,3-a][1,4]diazepine]
IC50 [1]: 7.68 nM

Cc1c(C#CCN2CCN(C)CC2)sc2c1C(c1ccc(Cl)cc1)=N[C@@H](C)c1nnc(C)n1-2 [Cpd. No. 33, (S)-4-(4-chlorophenyl)-3,6,9-trimethyl-2-(3-(4-methylpiperazin-1-yl)prop-1-yn-1-yl)-6H-thieno[3,2-f][1,2,4]triazolo[4,3-a][1,4]diazepine]
IC50 [1]: 42.2 nM

Cc1c(C#Cc2cncn2C)sc2c1C(c1ccc(Cl)cc1)=N[C@@H](C)c1nnc(C)n1-2 [Cpd. No. 30, (S)-4-(4-chlorophenyl)-3,6,9-trimethyl-2-((1-methyl-1H-imidazol-5-yl)ethynyl)-6H-thieno[3,2-f][1,2,4]triazolo[4,3-a][1,4]diazepine]
IC50 [1]: 13.5 nM

Cc1c(C#CC2CCCC2)sc2c1C(c1ccc(Cl)cc1)=N[C@@H](C)c1nnc(C)n1-2 [Cpd. No. 29, (S)-4-(4-chlorophenyl)-2-(cyclopentylethynyl)-3,6,9-trimethyl-6H-thieno[3,2-f][1,2,4]triazolo[4,3-a][1,4]diazepine]
IC50 [1]: 10.3 nM

Cc1c(C#Cc2cn[nH]c2)sc2c1C(c1ccc(Cl)cc1)=NCc1nnc(C)n1-2 [Cpd. No. 21, 2-((1H-pyrazol-4-yl)ethynyl)-4-(4-chlorophenyl)-3,9-dimethyl-6H-thieno[3,2-f][1,2,4]triazolo[4,3-a][1,4]diazepine]
IC50 [1]: 37.4 nM

Cc1c(C#Cc2nccs2)sc2c1C(c1ccc(Cl)cc1)=N[C@@H](C)c1nnc(C)n1-2 [Cpd. No. 35, (S)-4-(4-chlorophenyl)-3,6,9-trimethyl-2-(thiazol-2-ylethynyl)-6H-thieno[3,2-f][1,2,4]triazolo[4,3-a][1,4]diazepine]
IC50 [1]: 22 nM

Cc1c(C#Cc2cncs2)sc2c1C(c1ccc(Cl)cc1)=N[C@@H](C)c1nnc(C)n1-2 [Cpd. No. 34, (S)-4-(4-chlorophenyl)-3,6,9-trimethyl-2-(thiazol-5-ylethynyl)-6H-thieno[3,2-f][1,2,4]triazolo[4,3-a][1,4]diazepine]
IC50 [1]: 21.8 nM

Cc1c(C#Cc2cnn(C)c2)sc2c1C(c1ccc(Cl)cc1)=N[C@@H](CC(=O)N1CCNCC1)c1nnc(C)n1-2 [Compound 161, (S)-2-(4-(4-chlorophenyl)-3,9-dimethyl-2-((1-methyl-1H-pyrazol-4-yl)ethynyl)-6H-thieno[3,2-f][1,2,4]triazolo[4,3-a][1,4]diazepin-6-yl)-1-(piperazin-1-yl)ethan-1-one]
IC50 [2]: 10.9 nM | IC50 [3]: 76.2 nM

Cc1nnc(C[C@@H]2N=C(c3ccc(Cl)cc3)c3c(sc(C#Cc4ncccc4F)c3C)-n3c(C)nnc32)o1 [Compound 139, (S)-2-((4-(4-chlorophenyl)-2-((3-fluoropyridin-2-yl)ethynyl)-3,9-dimethyl-6H-thieno[3,2-f][1,2,4]triazolo[4,3-a][1,4]diazepin-6-yl)methyl)-5-methyl-1,3,4-oxadiazole]
IC50 [2]: 4 to 10 nM | IC50 [3]: 28.9 nM

Cc1c(C#Cc2cnn(C)c2)sc2c1C(c1ccc(Cl)cc1)=N[C@@H](CC(=O)N1CCN(C(=O)OC(C)(C)C)CC1)c1nnc(C)n1-2 [Compound 160, tert-butyl (S)-4-(2-(4-(4-chlorophenyl)-3,9-dimethyl-2-((1-methyl-1H-pyrazol-4-yl)ethynyl)-6H-thieno[3,2-f][1,2,4]triazolo[4,3-a][1,4]diazepin-6-yl)acetyl)piperazine-1-carboxylate]
IC50 [2]: 8.5 nM | IC50 [3]: 108 nM

Cc1c(C#Cc2cnn(C)c2)sc2c1C(c1ccc(Cl)cc1)=N[C@@H](CC(=O)N1CCN(C)CC1)c1nnc(C)n1-2 [Compound 162, (S)-2-(4-(4-chlorophenyl)-3,9-dimethyl-2-((1-methyl-1H-pyrazol-4-yl)ethynyl)-6H-thieno[3,2-f][1,2,4]triazolo[4,3-a][1,4]diazepin-6-yl)-1-(4-methylpiperazin-1-yl)ethan-1-one]
IC50 [2]: 19.2 nM | IC50 [3]: 109 ± 38 nM

Cc1c(C#Cc2cccnc2)sc2c1C(c1ccc(Cl)cc1)=N[C@@H](CC(C)C)c1nnc(C)n1-2 [Compound 106, (S)-4-(4-chlorophenyl)-6-isobutyl-3,9-dimethyl-2-(pyridin-3-ylethynyl)-6H-thieno[3,2-f][1,2,4]triazolo[4,3-a][1,4]diazepine]
IC50 [2]: 393 nM | IC50 [3]: 670 ± 100 nM

Cc1c(C#Cc2ccc(N)cn2)sc2c1C(c1ccc(Cl)cc1)=N[C@@H](C)c1nnc(C)n1-2 [Cpd. No. 32, (S)-6-((4-(4-chlorophenyl)-3,6,9-trimethyl-6H-thieno[3,2-f][1,2,4]triazolo[4,3-a][1,4]diazepin-2-yl)ethynyl)pyridin-3-amine]
IC50 [1]: 9.87 nM

Cc1c(C#Cc2ccc(F)cn2)sc2c1C(c1ccc(Cl)cc1)=N[C@@H](C)c1nnc(C)n1-2 [Cpd. No. 31, (S)-4-(4-chlorophenyl)-2-((5-fluoropyridin-2-yl)ethynyl)-3,6,9-trimethyl-6H-thieno[3,2-f][1,2,4]triazolo[4,3-a][1,4]diazepine]
IC50 [1]: 19.5 nM

Cc1nnc(C[C@@H]2N=C(c3ccc(Cl)cc3)c3c(sc(C#Cc4cnn(C)c4)c3C)-n3c(C)nnc32)o1 [Compound 141, (S)-2-((4-(4-chlorophenyl)-3,9-dimethyl-2-((1-methyl-1H-pyrazol-4-yl)ethynyl)-6H-thieno[3,2-f][1,2,4]triazolo[4,3-a][1,4]diazepin-6-yl)methyl)-5-methyl-1,3,4-oxadiazole]
IC50 [2]: 1.7 nM | IC50 [3]: 31.2 nM
